Data published in patent US20240009174A1, “METHODS FOR DISRUPTING MITOCHONDRIAL UNFOLDED PROTEIN RESPONSE” (Health Research, Inc., priority 2020, published 2024).

Legend:
Format in all cases: cell-based
LNCaP and PC-3 cells = test: Rescue of DCEM1-induced cell death by ROS quenchers (MTT cell viability)
Method: FIG. 6. Pharmacological inhibition of HSP60-ClpP interaction induces UPR^mt and PCa cell death. (A) Docking of DCEM1 into apical domain of HSP60. (B) LNCaP and PC-3 cells were treated with DCEM1 for 24 hours and HSP60-ClpP interaction was analyzed by co-immunoprecipitation assay. (C) LNCaP and PC-3 cells were treated with DCEM1 for 24 hours and mitoROS levels were analyzed by flow cytometry using mitoSOX dye. (D) LNCaP and PC-3 cells were treated with DCEM1 for 24 hours and poly-Ub protein levels were analyzed by western blotting. (E) LNCaP and PC-3 cells were treated with DCEM1 for 24 and 48 hours and apoptotic cell populations were analyzed by flow cytometry using Annexin V FITC/PI method as explained in materials and methods. In (E) top panel, the bars in each series from left to right are control, 5, 10, and 20, and in (E) bottom panel, the bars in each series from left to right are DMSO, 5, 10, and 20. (F) LNCaP and PC-3 cells were treated with DCEM1 for 24 and 48 hours and lysates were prepared and analyzed for DEVDase activity using specific peptide substrate. […] (G) LNCaP and PC-3 cells were pre-treated with SKQ1 followed by DCEM1 treatment and analyzed for cell viability by MTT assay. (H) LNCaP and PC-3 cells were treated with either DCEM1 or H2O2 (200 μM) for 24 hours and total DNA were isolated and analyzed for mtDNA damage as described in materials and methods. […]

c-Myc = target: T1, c-Myc (Homo sapiens, UniProt P01106); test: HSP60 and ClpP expression after c-Myc inhibitor; settings: LNCaP and PC-3 cells, 50 μM, 24 hrs
T1 construct: endogenous in cells; host or cells: LNCaP and PC-3 cells
T1 sequence (P01106 whole entry): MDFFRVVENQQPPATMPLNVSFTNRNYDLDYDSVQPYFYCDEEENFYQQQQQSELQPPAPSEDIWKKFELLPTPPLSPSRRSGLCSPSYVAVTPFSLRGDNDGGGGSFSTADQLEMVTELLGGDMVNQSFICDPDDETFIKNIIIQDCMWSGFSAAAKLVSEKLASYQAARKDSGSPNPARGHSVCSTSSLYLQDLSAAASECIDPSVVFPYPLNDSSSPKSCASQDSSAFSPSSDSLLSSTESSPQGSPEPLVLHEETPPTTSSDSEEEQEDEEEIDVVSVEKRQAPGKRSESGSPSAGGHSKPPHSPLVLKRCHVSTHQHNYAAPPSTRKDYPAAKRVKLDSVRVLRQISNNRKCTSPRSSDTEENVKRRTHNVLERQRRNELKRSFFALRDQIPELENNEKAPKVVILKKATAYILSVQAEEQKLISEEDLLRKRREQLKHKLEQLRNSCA
Excerpt: FIG. 4. HSP60 regulate ClpP expression but not vice versa. (A) HSP60 and ClpP stable knockdown LNCaP and PC-3 cells were generated using shRNA and analyzed for HSP60 and ClpP expression levels. Actin serves as loading control. (B-C) HSP60 and ClpP knockdown LNCaP and PC-3 cells were crosslinked with EGS, lysed and protein samples run on an SDS-PAGE gel as described in material and methods. Membranes were probed with either ClpP or HSP60 antibody to analyze the oligomerization status of these proteins. (D) Enzymatic activity of ClpP was assayed from mitochondrial pellets isolated from HSP60 knockdown PC-3 cells and DU145 Hsp60^+/− cells. (E) HSP60 was overexpressed in PC-3 cells and analyzed for ClpP expression. Actin serves as loading control. (F) ClpP was overexpressed in LNCaP, DU145 and PC-3 cells and analyzed for HSP60 expression. Actin serves as loading control. […] Whole cell lysates were prepared and analyzed for HSP60 and ClpP expression. […] (H) c-Myc binding efficiency with ClpP promoter in HSP60 knockdown LNCaP and PC-3 cells was determined using chromatin immunoprecipitation (ChIP) assay using specific primers. […]
HSP60 regulates expression of ClpP via c-Myc but not vice versa. […] To confirm that c-Myc is a regulator for ClpP expression, PCa cells were treated with c-Myc pharmacological inhibitor 10058-F4 and analyzed ClpP expression levels. […]

HSP60-silenced cells = test: Cell death in HSP60-silenced cells versus mock cells
Excerpt: Although cancer cells prefer aerobic glycolysis for energy, continual production of ATP via OXPHOS system is still required for rapid cancer cell survival and growth. ClpP along with LonP1 degrades Complex I during stress to alleviate mtROS, thus promoting cell survival. HSP60-silencing or inhibition of HSP60-ClpP interaction by DCEM1 contribute to mtROS buildup and mitotoxicity due to inhibition of ClpP function or ClpP-deficiency because ClpP is no longer available/functional in alleviating mtROS production and degrading unfolded protein in mitochondria leading to collapse of mitochondrial function and homeostasis. […] Mitochondrial proteases such as ClpP trigger mitochondria-to-nuclear signaling pathway and UPR^mt activation. Inhibition of ClpP expression and function by HSP60-silencing or HSP60 inhibitor such as DCEM1 may abolish mito-nuclear crosstalk leading to inhibition of retrograde signaling. Inhibition of HSP60 renders mitochondria in a fragile and dysfunctional state leading to enhanced apoptosis and blockage of cellular proliferation. Therefore, chemotherapeutic agents along with HSP60 inhibition may provide a novel combination for therapeutic benefits in PCa.

[1] = test system: mitochondrial chaperonin activity in PCa cells; test: Mitochondrial Chaperonin Activity Assay (MiCAA); settings: 24 h
Method: FIG. 10. Mitochondrial Chaperonin Activity Assay (MiCAA). PCa cells were treated with either DCEM1 (A) or ETB or Mizoribine (B) for 24 h and mitochondrial (Mito) chaperonin activity was analyzed as described in material and methods. In another experiment, PCa cells were transfected with siRNA to target HSP60 mRNA and mitochondrial chaperonin activity was analyzed (C). In (A), the bars in each series from left to right are DMSO and DCEM1. In (B), the bars in each series from left to right are DMSO, ETB, and MZR. In (C), the bars in each series from left to right are siMock, siHSP60-1, and siHSP60-2.
Since HSP60 chaperonin system is crucial for maintaining mitochondrial homeostasis in normal cells, a novel method, Mitochondrial Chaperonin Activity Assay (MiCAA), was developed to analyze chaperonin activity in live cells using flow cytometry to evaluate whether DCEM1 modulates mitochondrial chaperonin activity.

Q: `CC1=C(C)C(=O)C(CCCCCCCCCC[P+](c2ccccc2)(c2ccccc2)c2ccccc2)=CC1=O` [SKQ1] was tested. Which “effect of mitoROS quencher pre-treatment on DCEM1-induced cell death” value (LNCaP and PC-3 cells; LNCaP and PC-3 cells pre-treated with SKQ1 followed by DCEM1, MTT assay) did it give?
A: inhibited DCEM1—induced cell death

Q: Which “effect of NAC pre-treatment on DCEM1-induced cell death” value (LNCaP and PC-3 cells; PCa cells, data not shown) does the source give for `CC(=O)N[C@@H](CS)C(=O)O` [NAC] here?
A: antagonizes DCEM1-induced cell death

Q: With `CCc1ccc(/C=C2/SC(=S)NC2=O)cc1` [10058-F4] as the compound, how does the ClpP expression (c-Myc) read?
A: downregulate ClpP expression

Q: And the HSP60 expression (c-Myc)?
A: without affecting HSP60 expression

Q: How did the “cell death induction in HSP60-silenced cells compared to mock cells” value (HSP60-silenced cells) turn out when `CC(=O)O[C@@]12CO[C@@H]1C[C@H](O)[C@@]1(C)C(=O)[C@H](O)C3=C(C)[C@@H](OC(=O)[C@H](O)[C@@H](NC(=O)OC(C)(C)C)c4ccccc4)C[C@@](O)([C@@H](OC(=O)c4ccccc4)[C@H]21)C3(C)C` [docetaxel] was run?
A: more efficacious

Q: With `NC(=O)c1ncn([C@@H]2O[C@H](CO)[C@@H](O)[C@H]2O)c1O` [mizoribine, reference compound] as the compound, how does the mitochondrial chaperonin activity [1] read?
A: significantly inhibited
